Literature values, collected in PubChem BioAssay AID1259409 (Chemical Carcinogenesis Research Information System (CCRIS), 2018).

Tested on: rodent chemically induced tumor inhibition, incidence and multiplicity
Assay: CCRIS tumor inhibitor studies

## CCO
Carcinogen: ETHYL CARBAMATE, 51-79-6, Dose [Inhibitor]: 0, 20% SIMULTANEOUSLY WITH CARCINOGEN 1/D FOR WK (STUDY DURATION: 16 WK), Route [Inhibitor]: GAVAGE, Species: MOUSE, Strain/Sex: NMRI/FEMALE, Target Tissue: Type of Lesion: LUNG: ADENOMA, Dose [Carcinogen]: 180 MG/KG IN 20% ETHANOL 1/D FOR 8 WK (CONTROL GROUP ADMINISTERED CARCINOGEN IN WATER), Promoter: NONE USED
  tumour outcome (control, treated, inhibition, significance): 100%, 100%, 0%, not significant
Carcinogen: ETHYL CARBAMATE, 57-79-6, Dose [Inhibitor]: 0, 12% ADMINISTERED WITH CARCINOGEN IN DRINKING WATER FOR 41 WK (STUDY DURATION: 41 WK), Route [Inhibitor]: ORAL, Species: MOUSE, Strain/Sex: C3H/MALE, Target Tissue: Type of Lesion: LIVER: HEMANGIOENDOTHELIOMA, Dose [Carcinogen]: 10 MG/KG IN DRINKING WATER FOR 41 WK, Promoter: NONE USED
  tumour outcome (control, treated, inhibition, significance): 5%, 5%, 0%, not significant
Carcinogen: N-METHYL-N'-NITRO-N-NITROSOGUANIDINE, 70-25-7, Dose [Inhibitor]: 0, 10% IN DRINKING WATER FOR 51 WK BEGINNING 1 WK POST CARCINOGEN DOSE, 5% NACL INCLUDED IN THE DIET OF TREATED RATS (ST, Route [Inhibitor]: ORAL, Species: RAT, Strain/Sex: F344/MALE, Target Tissue: Type of Lesion: FORESTOMACH: CARCINOMA IN SITU, Dose [Carcinogen]: 150 MG/KG BW ONCE, Promoter: CATECHOL, 120-89-9
  tumour outcome (control, treated, inhibition, significance): 3/15 (20%), 5/14 (36%), -80%, not significant
Carcinogen: N-METHYL-N'-NITRO-N-NITROSOGUANIDINE, 70-25-7, Dose [Inhibitor]: 0, 10% IN DRINKING WATER FOR 51 WK BEGINNING 1 WK POST CARCINOGEN DOSE, 5% NACL INCLUDED IN THE DIET OF TREATED RATS (ST, Route [Inhibitor]: ORAL, Species: RAT, Strain/Sex: F344/MALE, Target Tissue: Type of Lesion: FORESTOMACH: PAPILLOMA, Dose [Carcinogen]: 150 MG/KG BW ONCE, Promoter: CATECHOL, 120-80-9
  tumour outcome (control, treated, inhibition, significance): 15/15 (100%), 12/14 (86%), 14%, not significant
Carcinogen: N-METHYL-N'-NITRO-N-NITROSOGUANIDINE, 70-25-7, Dose [Inhibitor]: 0, 10% IN DRINKING WATER FOR 51 WK BEGINNING 1 WK POST CARCINOGEN DOSE, 5% NACL INCLUDED IN THE DIET OF TREATED RATS (ST, Route [Inhibitor]: ORAL, Species: RAT, Strain/Sex: F344/MALE, Target Tissue: Type of Lesion: FORESTOMACH: SQUAMOUS CELL CARCINOMA, Dose [Carcinogen]: 150 MG/KG BW ONCE, Promoter: CATECHOL, 120-80-9
  tumour outcome (control, treated, inhibition, significance): 15/15 (100%), 8/14 (57%), 43%, p<0.01
Carcinogen: N-METHYL-N'-NITRO-N-NITROSOGUANIDINE, 70-25-7, Dose [Inhibitor]: 0, 10% IN DRINKING WATER FOR 51 WK BEGINNING 1 WK POST CARCINOGEN DOSE, 5% NACL INCLUDED IN THE DIET OF TREATED RATS (ST, Route [Inhibitor]: ORAL, Species: RAT, Strain/Sex: F344/MALE, Target Tissue: Type of Lesion: GLANDULAR STOMACH: ADENOCARCINOMA, Dose [Carcinogen]: 150 MG/KG BW ONCE, Promoter: CATECHOL, 120-80-9
  tumour outcome (control, treated, inhibition, significance): 11/15 (73%), 4/14 (29%), 60%, p<0.02
Carcinogen: N-METHYL-N'-NITRO-N-NITROSOGUANIDINE, 70-25-7, Dose [Inhibitor]: 0, 10% IN DRINKING WATER FOR 51 WK BEGINNING 1 WK POST CARCINOGEN DOSE, 5% NACL INCLUDED IN THE DIET OF TREATED RATS (ST, Route [Inhibitor]: ORAL, Species: RAT, Strain/Sex: F344/MALE, Target Tissue: Type of Lesion: GLANDULAR STOMACH: ADENOMA, Dose [Carcinogen]: 150 MG/KG BW ONCE, Promoter: CATECHOL, 120-80-9
  tumour outcome (control, treated, inhibition, significance): 15/15 (100%), 13/14 (93%), 7%, not significant
Carcinogen: N-NITROSOMETHYLBENZYLAMINE, 937-40-6, Dose [Inhibitor]: 1-2% IN LIQUID DIET ON DAY 1 AND INCREASING TO 7% BY DAY 8 OF AGENT TREATMENT AND CONTINUING FOR 12 WK (STUDY DURATION:, Route [Inhibitor]: ORAL, Species: RAT, Strain/Sex: SPRAGUE-DAWLEY/MALE, Target Tissue: Type of Lesion: ESOPHAGUS: PAPILLOMA, Dose [Carcinogen]: 2.5 MG/KG 3/WK FOR 3 WK BEGINNING THE LAST 3 WK OF AGENT TREATMENT, Promoter: NONE USED
  tumour outcome (control, treated, inhibition, significance): 10/26 (38%), 3/13 (23%), 39%, p<0.01
Carcinogen: URETHANE, 51-79-6, Dose [Inhibitor]: 5% (VOL/VOL) IN DRINKING WATER CONCURRENTLY WITH CARCINOGEN FOR 12 WK (STUDY DURATION: 12 WK), Route [Inhibitor]: ORAL, Species: MOUSE, Strain/Sex: A/PH/FEMALE, Target Tissue: Type of Lesion: LUNG: ADENOMA, Dose [Carcinogen]: 200 PPM IN DRINKING WATER FOR 12 WK, Promoter: NONE USED
  tumour outcome (control, treated, inhibition, significance): 100%, 100%, 0%, not calculated
Carcinogen: URETHANE, 51-79-6, Dose [Inhibitor]: 5% (VOL/VOL) IN DRINKING WATER CONCURRENTLY WITH CARCINOGEN FOR 12 WK (STUDY DURATION: 12 WK), Route [Inhibitor]: ORAL, Species: MOUSE, Strain/Sex: A/PH/FEMALE, Target Tissue: Type of Lesion: LUNG: ADENOMA, Dose [Carcinogen]: 500 PPM IN DRINKING WATER FOR 12 WK, Promoter: NONE USED
  tumour outcome (control, treated, inhibition, significance): 100%, 100%, 0%, not calculated
Carcinogen: URETHANE, 51-79-6, Dose [Inhibitor]: 5% (VOL/VOL) IN DRINKING WATER CONCURRENTLY WITH CARCINOGEN FOR 12 WK (STUDY DURATION: 12 WK), Route [Inhibitor]: ORAL, Species: MOUSE, Strain/Sex: A/PH/FEMALE, Target Tissue: Type of Lesion: LUNG: ADENOMA, Dose [Carcinogen]: 1000 PPM IN DRINKING WATER FOR 12 WK, Promoter: NONE USED
  tumour outcome (control, treated, inhibition, significance): 100%, 100%, 0%, not calculated
Carcinogen: URETHANE, 51-79-6, Dose [Inhibitor]: 10% (VOL/VOL) IN DRINKING WATER CONCURRENTLY WITH CARCINOGEN FOR 12 WK (STUDY DURATION: 12 WK), Route [Inhibitor]: ORAL, Species: MOUSE, Strain/Sex: A/PH/FEMALE, Target Tissue: Type of Lesion: LUNG: ADENOMA, Dose [Carcinogen]: 200 PPM IN DRINKING WATER FOR 12 WK, Promoter: NONE USED
  tumour outcome (control, treated, inhibition, significance): 100%, 80%, 20%, p<0.001
Carcinogen: URETHANE, 51-79-6, Dose [Inhibitor]: 10% (VOL/VOL) IN DRINKING WATER CONCURRENTLY WITH CARCINOGEN FOR 12 WK (STUDY DURATION: 12 WK), Route [Inhibitor]: ORAL, Species: MOUSE, Strain/Sex: A/PH/FEMALE, Target Tissue: Type of Lesion: LUNG: ADENOMA, Dose [Carcinogen]: 500 PPM IN DRINKING WATER FOR 12 WK, Promoter: NONE USED
  tumour outcome (control, treated, inhibition, significance): 100%, 100%, 0%, not calculated
Carcinogen: URETHANE, 51-79-6, Dose [Inhibitor]: 10% (VOL/VOL) IN DRINKING WATER CONCURRENTLY WITH CARCINOGEN FOR 12 WK (STUDY DURATION: 12 WK), Route [Inhibitor]: ORAL, Species: MOUSE, Strain/Sex: A/PH/FEMALE, Target Tissue: Type of Lesion: LUNG: ADENOMA, Dose [Carcinogen]: 1000 PPM IN DRINKING WATER FOR 12 WK, Promoter: NONE USED
  tumour outcome (control, treated, inhibition, significance): 100%, 100%, 0%, not calculated
Carcinogen: URETHANE, 51-79-6, Dose [Inhibitor]: 20% (VOL/VOL) IN DRINKING WATER CONCURRENTLY WITH CARCINOGEN FOR 12 WK (STUDY DURATION: 12 WK), Route [Inhibitor]: ORAL, Species: MOUSE, Strain/Sex: A/PH/FEMALE, Target Tissue: Type of Lesion: LUNG: ADENOMA, Dose [Carcinogen]: 200 PPM IN DRINKING WATER FOR 12 WK, Promoter: NONE USED
  tumour outcome (control, treated, inhibition, significance): 100%, 100%, 0%, not calculated
Carcinogen: URETHANE, 51-79-6, Dose [Inhibitor]: 20% (VOL/VOL) IN DRINKING WATER CONCURRENTLY WITH CARCINOGEN FOR 12 WK (STUDY DURATION: 12 WK), Route [Inhibitor]: ORAL, Species: MOUSE, Strain/Sex: A/PH/FEMALE, Target Tissue: Type of Lesion: LUNG: ADENOMA, Dose [Carcinogen]: 500 PPM IN DRINKING WATER FOR 12 WK, Promoter: NONE USED
  tumour outcome (control, treated, inhibition, significance): 100%, 100%, 0%, not calculated
Carcinogen: URETHANE, 51-79-6, Dose [Inhibitor]: 20% (VOL/VOL) IN DRINKING WATER CONCURRENTLY WITH CARCINOGEN FOR 12 WK (STUDY DURATION: 12 WK), Route [Inhibitor]: ORAL, Species: MOUSE, Strain/Sex: A/PH/FEMALE, Target Tissue: Type of Lesion: LUNG: ADENOMA, Dose [Carcinogen]: 1000 PPM IN DRINKING WATER FOR 12 WK, Promoter: NONE USED
  tumour outcome (control, treated, inhibition, significance): 100%, 100%, 0%, not calculated
